Measurements published in patent US12221434B2, “Sulfonamide carboxamide compounds” (Inflazome Limited, priority 2017, dated 2025).

Legend:
NLRP3 [1] = molecular target: T1, NLRP3 (Homo sapiens, UniProt Q96P20); assay: THP-1 cells pyroptosis assay (LPS + nigericin, resazurin read-out); assay type: cell-based; set-up: Seed THP-1 cells (25,000 cells/well) containing 1.0 μg/ml LPS; host or cells: THP-1 cells, LPS-primed, nigericin-stimulated; conditions: 1 μg/ml LPS, 5 μM nigericin, NLRP3 inhibitory activity
T1 sequence (Q96P20 whole entry): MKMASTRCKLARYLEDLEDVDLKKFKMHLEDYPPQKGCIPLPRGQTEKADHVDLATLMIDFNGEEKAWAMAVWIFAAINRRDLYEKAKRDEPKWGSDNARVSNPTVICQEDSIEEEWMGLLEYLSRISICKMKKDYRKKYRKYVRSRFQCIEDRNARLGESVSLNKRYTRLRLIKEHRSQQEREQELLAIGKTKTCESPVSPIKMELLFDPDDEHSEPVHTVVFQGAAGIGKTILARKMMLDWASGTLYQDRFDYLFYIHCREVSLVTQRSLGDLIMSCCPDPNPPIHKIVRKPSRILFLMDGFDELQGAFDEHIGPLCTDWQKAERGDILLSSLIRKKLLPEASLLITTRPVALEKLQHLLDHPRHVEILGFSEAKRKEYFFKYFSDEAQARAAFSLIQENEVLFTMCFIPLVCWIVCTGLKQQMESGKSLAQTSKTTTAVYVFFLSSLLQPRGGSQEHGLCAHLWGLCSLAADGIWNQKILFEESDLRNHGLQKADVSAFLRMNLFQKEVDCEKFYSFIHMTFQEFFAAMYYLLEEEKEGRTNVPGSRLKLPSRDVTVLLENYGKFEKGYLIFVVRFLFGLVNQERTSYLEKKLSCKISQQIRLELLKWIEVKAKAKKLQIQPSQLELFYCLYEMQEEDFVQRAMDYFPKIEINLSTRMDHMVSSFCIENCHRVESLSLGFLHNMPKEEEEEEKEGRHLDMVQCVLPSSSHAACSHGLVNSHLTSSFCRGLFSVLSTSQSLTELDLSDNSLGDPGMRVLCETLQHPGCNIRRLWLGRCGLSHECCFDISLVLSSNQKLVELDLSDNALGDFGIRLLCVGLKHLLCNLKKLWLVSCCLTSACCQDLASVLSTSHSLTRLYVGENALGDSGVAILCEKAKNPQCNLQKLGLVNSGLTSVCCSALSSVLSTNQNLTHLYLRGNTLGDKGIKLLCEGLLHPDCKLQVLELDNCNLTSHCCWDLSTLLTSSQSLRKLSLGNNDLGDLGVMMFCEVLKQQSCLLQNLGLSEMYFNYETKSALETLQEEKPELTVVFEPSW
Description: THP-1 cells (ATCC #TIB-202) were grown in RPMI containing L-glutamine (Gibco #11835) supplemented with 1 mM sodium pyruvate (Sigma #S8636) and penicillin (100 units/ml)/streptomycin (0.1 mg/ml) (Sigma #P4333) in 10% Fetal Bovine Serum (FBS) (Sigma #F0804). The cells were routinely passaged and grown to confluency (˜10^6 cells/ml). On the day of the experiment, THP-1 cells were harvested and resuspended into RPMI medium (without FBS). The cells were then counted and viability (>90%) checked by Trypan blue (Sigma #T8154). Appropriate dilutions were made to give a concentration of 625,000 cells/ml. To this diluted cell solution was added LPS (Sigma #L4524) to give a 1 μg/ml Final Assay Concentration (FAC). 40 μl of the final preparation was aliquoted into each well of a 96-well plate. The plate thus prepared was used for compound screening.
The following method step-by-step assay was followed for compound screening. • 1. Seed THP-1 cells (25,000 cells/well) containing 1.0 μg/ml LPS in 40 μl of RPMI medium (without FBS) in 96-well, black walled, clear bottom cell culture plates coated with poly-D-lysine (VWR #734-0317) • 2. Add 5 μl compound (8 points half-log dilution, with 10 μM top dose) or vehicle (DMSO 0.1% FAC) to the appropriate wells • 3. Incubate for 3 hrs at 37° C. and 5% CO2 • 4. Add 5 μl nigericin (Sigma #N7143) (FAC 5 μM) to all wells • 5. Incubate for 1 hr at 37° C. and 5% CO2 • 6. At the end of the incubation period, spin plates at 300×g for 3 mins and remove supernatant • 7. Then add 50 μl of resazurin (Sigma #R7017) (FAC […] resazurin in RPMI medium without FBS) and incubate plates for a further 1-1.5 h at 37° C. and 5% CO2 • 8. Plates were read in an Envision reader at Ex 560 nm and Em 590 nm • 9. IC50 data is fitted to a non-linear regression equation (log inhibitor vs response-variable slope 4-parameters) 96-Well Plate Map

NLRP3 [2] = molecular target: T1, NLRP3; assay: Human whole blood IL1β release assay (LPS + nigericin, AlphaLisa IL-1β); assay type: cell-based; set-up: Plate out 80 μl of whole blood containing 1 μg/ml of LPS; from tissue; host or cells: human whole blood from healthy donors (Li-heparin), LPS-primed, nigericin-stimulated; conditions: 1 μg/ml LPS, 10 μM nigericin, IL-1β release, read-out: HWB IC50
Description: For systemic delivery, the ability to inhibit NLRP3 when the compounds are present within the bloodstream is of great importance. For this reason, the NLRP3 inhibitory activity of a number of compounds in human whole blood was investigated in accordance with the following protocol.
Human whole blood in Li-heparin tubes was obtained from healthy donors from a volunteer donor panel. • 1. Plate out 80 μl of whole blood containing 1 μg/ml of LPS in 96-well, clear bottom cell culture plate (Corning #3585) • 2. Add 10 μl compound (8 points half-log dilution with 10 μM top dose) or vehicle (DMSO 0.1% FAC) to the appropriate wells • 3. Incubate for 3 hrs at 37° C., 5% CO2 • 4. Add 10 μl nigericin (Sigma #N7143) (10 μM FAC) to all wells • 5. Incubate for 1 hr at 37° C., 5% CO2 • 6. At the end of the incubation period, spin plates at 300×g for 5 mins to pellet cells and remove 20 μl of supernatant and add to 96-well v-bottom plates for IL-1β analysis (note: these plates containing the supernatants can be stored at −80° C. to be analysed at a later date) • 7. IL-1β was measured according to the manufacturer protocol (Perkin Elmer-AlphaLisa IL-1 Kit AL220F-5000) • 8. IC50 data is fitted to a non-linear regression equation (log inhibitor vs response-variable slope 4-parameters)

SMILES: O=C(Nc1c2c(cc3c1CCC3)CCC2)NS(=O)(=O)c1ccn(Cc2ncccn2)n1 [Example 1, N-((1,2,3,5,6,7-Hexahydro-s-indacen-4-yl)carbamoyl)-1-(pyrimidin-2-ylmethyl)-1H-pyrazole-3-sulfonamide]
- IC50 (NLRP3 [1]): 640 to 2560 nM

SMILES: O=C(Nc1c2c(cc3c1CCC3)CCC2)NS(=O)(=O)c1ccn(-c2cccnc2)n1 [Example 6, N-((1,2,3,5,6,7-Hexahydro-s-indacen-4-yl)carbamoyl)-1-(pyridin-3-yl)-1H-pyrazole-3-sulfonamide]
- IC50 (NLRP3 [1]): 640 to 2560 nM

SMILES: Cn1ccnc1Cn1ccc(S(=O)(=O)NC(=O)Nc2c3c(cc4c2CCC4)CCC3)n1 [Example 3, N-((1,2,3,5,6,7-Hexahydro-s-indacen-4-yl)carbamoyl)-1-((1-methyl-1H-imidazol-2-yl)methyl)-H-pyrazole-3-sulfonamide]
- IC50 (NLRP3 [2]): 400 to 800 nM

SMILES: CN(Cc1nccs1)C(=O)c1cc(S(=O)(=O)NC(=O)Nc2c3c(cc4c2CCC4)CCC3)nn1C [Example 7, 3-(N-((1,2,3,5,6,7-Hexahydro-s-indacen-4-yl)carbamoyl)sulfamoyl)-N,1-dimethyl-N-(thiazol-2-ylmethyl)-1H-pyrazole-5-carboxamide]
- IC50 (NLRP3 [1]): 160 to 640 nM
- IC50 (NLRP3 [2]): 1600 to 3200 nM

SMILES: O=C(Nc1c2c(cc3c1CCC3)CCC2)NS(=O)(=O)c1ccn(Cc2ncco2)n1 [Example 2, N-((1,2,3,5,6,7-Hexahydro-s-indacen-4-yl)carbamoyl)-1-(oxazol-2-ylmethyl)-1H-pyrazole-3-sulfonamide]
- IC50 (NLRP3 [1]): 40 to 160 nM
- IC50 (NLRP3 [2]): 3200 to 10000 nM

SMILES: CN(C(=O)c1cc(S(=O)(=O)NC(=O)Nc2c3c(cc4c2CCC4)CCC3)nn1C)c1nccs1 [Example 9, 3-(N-((1,2,3,5,6,7-Hexahydro-s-indacen-4-yl)carbamoyl)sulfamoyl)-N,1-dimethyl-N-(thiazol-2-yl)-1H-pyrazole-5-carboxamide]
- IC50 (NLRP3 [1]): 160 to 640 nM

SMILES: CN(Cc1nccn1C)C(=O)c1cc(S(=O)(=O)NC(=O)Nc2c3c(cc4c2CCC4)CCC3)nn1C [Example 8, 3-(N-((1,2,3,5,6,7-Hexahydro-s-indacen-4-yl)carbamoyl)sulfamoyl)-N,1-dimethyl-N-((1-methyl-1H-imidazol-2-yl)methyl)-1H-pyrazole-5-carboxamide]
- IC50 (NLRP3 [1]): 40 to 160 nM
- IC50 (NLRP3 [2]): 800 to 1600 nM

SMILES: O=C(Nc1c2c(cc3c1CCC3)CCC2)NS(=O)(=O)c1ccn(-c2nccs2)n1 [Example 5, N-((1,2,3,5,6,7-Hexahydro-s-indacen-4-yl)carbamoyl)-1-(thiazol-2-yl)-1H-pyrazole-3-sulfonamide]
- IC50 (NLRP3 [1]): 640 to 2560 nM

SMILES: O=C(Nc1c2c(cc3c1CCC3)CCC2)NS(=O)(=O)c1ccn(-c2ccccn2)n1 [Example 4, N-((1,2,3,5,6,7-Hexahydro-s-indacen-4-yl)carbamoyl)-1-(pyridin-2-yl)-1H-pyrazole-3-sulfonamide]
- IC50 (NLRP3 [1]): 640 to 2560 nM

SMILES: CN(Cc1ccnn1C)C(=O)c1cc(S(=O)(=O)NC(=O)Nc2c3c(cc4c2CCC4)CCC3)nn1C [Example 10, 3-(N-((1,2,3,5,6,7-Hexahydro-s-indacen-4-yl)carbamoyl)sulfamoyl)-N,1-dimethyl-N-((1-methyl-1H-pyrazol-5-yl)methyl)-1H-pyrazole-5-carboxamide]
- IC50 (NLRP3 [1]): 640 to 2560 nM
